Results from patent US20060030616A1, “Anhydride modified cantharidin analogues useful in the treatment of cancer” (priority 1998, published 2006).

Columns and labels:
Assay in all cases: Checkpoint abrogation after 6 Gy radiation, flow cytometry
Assay type in all cases: cell-based, human
Details in all cases: 12 h after drug
HCT116 cells = tested on: HCT116 cells
Procedure: (§1) The cells are fixed in 70% ethanol and stored at −20° C. until analysis is performed (1-2 weeks). After fixing, the cells are pelleted and incubated in PBS containing propidium iodide ([…]) and RNase A (200 mg/ml) for at least 30 min at room temperature. The samples (2×10^4 events) are analysed using a Becton Dickson FACScan, fluorescence is collected in fluorescence detector 2 (FL2), filter 575/30 nm band pass. Cell cycle distribution is assessed using Cell Quest software (Becton Dickson).
(§2) The ability of the protein phosphatase inhibitors to abrogate the G1 or G2 checkpoint of the cell cycle may be determined by cell cycle analysis using flow cytometry. Briefly, asynchronous cell cultures are harvested 18 h after 6 Gy irradiation and/or 12 h incubation with the protein phosphatase inhibitor. Depending upon the p53 status of the cell line, radiation treatment alone will induce arrest in either G1 and/or G2 phase of the cell cycle.
(§3) If the protein phosphatase inhibitor abrogates the G2 checkpoint then the cells will not arrest in the G2 phase of the cell cycle and the cells will continue through the cell cycle and accumulate in the G1 phase of the cell cycle only. Similarily if the protein phosphatase inhibitors abrogates the G1 checkpoint then the cells will not arrest in the G1 phase of the cell cycle and accumulate in the G2 phase of the cell cycle only. Cell cycle analysis using propidium iodide labelling of DNA has been used extensively in our laboratory to assess the effect of specific anticancer agents that induce S-phase cell cycle arrest and apoptotic cell death (Sakoff, Ackland and Stewart, 1998). Experiments were performed on a Becton Dickinson FACScan and using Cell Quest software.
(§4) The cells were treated with 6 Gy of radiation and then treated with cantharidin 6 h later. The ability to abrogate cell cycle arrest was assessed is 12 h after the addition of the drugs.

HL60 cells = tested on: HL60 cells
Procedure: as §1, §2, §3, §4

HT29 cells = tested on: HT29 cells
Procedure: as §1, §2, §3, §4

O=C1OC(O)C2C3CCC(O3)C12 (stereo not drawn) [MK-4]
Cell Cycle Distribution, G1 (HCT116 cells; HCT116, 50 μM, 18 h after 6Gy): 26.7 percentage of total
Cell Cycle Distribution, G2 + M (HCT116 cells; HCT116, 50 μM, 18 h after 6Gy): 61.3 percentage of total
Cell Cycle Distribution, S (HCT116 cells; HCT116, 50 μM, 18 h after 6Gy): 5.8 percentage of total
Cell Cycle Distribution, sub G (HCT116 cells; HCT116, 50 μM, 18 h after 6Gy): 6.3 percentage of total
Cell Cycle Distribution, G1 (HCT116 cells; HCT116, 100 μM, 18 h after 6Gy): 18.4 percentage of total
Cell Cycle Distribution, G2 + M (HCT116 cells; HCT116, 100 μM, 18 h after 6Gy): 69.3 percentage of total
Cell Cycle Distribution, S (HCT116 cells; HCT116, 100 μM, 18 h after 6Gy): 9.7 percentage of total
Cell Cycle Distribution, sub G (HCT116 cells; HCT116, 100 μM, 18 h after 6Gy): 3.3 percentage of total
Cell Cycle Distribution, G1 (HCT116 cells; HCT116, 250 μM, 18 h after 6Gy): 16.3 percentage of total
Cell Cycle Distribution, G2 + M (HCT116 cells; HCT116, 250 μM, 18 h after 6Gy): 67.8 percentage of total
Cell Cycle Distribution, S (HCT116 cells; HCT116, 250 μM, 18 h after 6Gy): 8.2 percentage of total
Cell Cycle Distribution, sub G (HCT116 cells; HCT116, 250 μM, 18 h after 6Gy): 8.2 percentage of total
Cell Cycle Distribution, G1 (HCT116 cells; HCT116, 500 μM, 18 h after 6Gy): 13.1 percentage of total
Cell Cycle Distribution, G2 + M (HCT116 cells; HCT116, 500 μM, 18 h after 6Gy): 61.9 percentage of total
Cell Cycle Distribution, S (HCT116 cells; HCT116, 500 μM, 18 h after 6Gy): 10.6 percentage of total
Cell Cycle Distribution, sub G (HCT116 cells; HCT116, 500 μM, 18 h after 6Gy): 14.9 percentage of total
Checkpoint remark (HCT116 cells; HCT116, 500 μM, 18 h after 6Gy): G1 abrogation
Checkpoint abrogation (HCT116 cells; HCT116, 6 Gy): abrogated G1 arrest
Cell Cycle Distribution, G1 (HL60 cells; HL60, 50 μM, 18 h after 6Gy): 6.2 percentage of total
Cell Cycle Distribution, G2 + M (HL60 cells; HL60, 50 μM, 18 h after 6Gy): 82.3 percentage of total
Cell Cycle Distribution, S (HL60 cells; HL60, 50 μM, 18 h after 6Gy): 2.8 percentage of total
Cell Cycle Distribution, sub G (HL60 cells; HL60, 50 μM, 18 h after 6Gy): 8.9 percentage of total
Cell Cycle Distribution, G1 (HL60 cells; HL60, 100 μM, 18 h after 6Gy): 6.2 percentage of total
Cell Cycle Distribution, G2 + M (HL60 cells; HL60, 100 μM, 18 h after 6Gy): 80.8 percentage of total
Cell Cycle Distribution, S (HL60 cells; HL60, 100 μM, 18 h after 6Gy): 3.4 percentage of total
Cell Cycle Distribution, sub G (HL60 cells; HL60, 100 μM, 18 h after 6Gy): 9.8 percentage of total
Cell Cycle Distribution, G1 (HL60 cells; HL60, 250 μM, 18 h after 6Gy): 5.8 percentage of total
Cell Cycle Distribution, G2 + M (HL60 cells; HL60, 250 μM, 18 h after 6Gy): 82.2 percentage of total
Cell Cycle Distribution, S (HL60 cells; HL60, 250 μM, 18 h after 6Gy): 3.1 percentage of total
Cell Cycle Distribution, sub G (HL60 cells; HL60, 250 μM, 18 h after 6Gy): 9.3 percentage of total
Cell Cycle Distribution, G1 (HL60 cells; HL60, 500 μM, 18 h after 6Gy): 5.2 percentage of total
Cell Cycle Distribution, G2 + M (HL60 cells; HL60, 500 μM, 18 h after 6Gy): 78.2 percentage of total
Cell Cycle Distribution, S (HL60 cells; HL60, 500 μM, 18 h after 6Gy): 5.4 percentage of total
Cell Cycle Distribution, sub G (HL60 cells; HL60, 500 μM, 18 h after 6Gy): 11.6 percentage of total
Checkpoint remark (HL60 cells; HL60, 500 μM, 18 h after 6Gy): Cell Death
Checkpoint abrogation (HL60 cells; HL60, 6 Gy): abrogated G1 arrest
Cell Cycle Distribution, G1 (HT29 cells; HT29, 50 μM, 18 h after 6Gy): 28.9 percentage of total
Cell Cycle Distribution, G2 + M (HT29 cells; HT29, 50 μM, 18 h after 6Gy): 48.4 percentage of total
Cell Cycle Distribution, S (HT29 cells; HT29, 50 μM, 18 h after 6Gy): 16.4 percentage of total
Cell Cycle Distribution, sub G (HT29 cells; HT29, 50 μM, 18 h after 6Gy): 6.8 percentage of total
Cell Cycle Distribution, G1 (HT29 cells; HT29, 100 μM, 18 h after 6Gy): 33.3 percentage of total
Cell Cycle Distribution, G2 + M (HT29 cells; HT29, 100 μM, 18 h after 6Gy): 43.3 percentage of total
Cell Cycle Distribution, S (HT29 cells; HT29, 100 μM, 18 h after 6Gy): 17.2 percentage of total
Cell Cycle Distribution, sub G (HT29 cells; HT29, 100 μM, 18 h after 6Gy): 6.3 percentage of total
Cell Cycle Distribution, G1 (HT29 cells; HT29, 250 μM, 18 h after 6Gy): 35.2 percentage of total
Cell Cycle Distribution, G2 + M (HT29 cells; HT29, 250 μM, 18 h after 6Gy): 36.5 percentage of total
Cell Cycle Distribution, S (HT29 cells; HT29, 250 μM, 18 h after 6Gy): 17.3 percentage of total
Cell Cycle Distribution, sub G (HT29 cells; HT29, 250 μM, 18 h after 6Gy): 10.3 percentage of total
Cell Cycle Distribution, G1 (HT29 cells; HT29, 500 μM, 18 h after 6Gy): 39.4 percentage of total
Cell Cycle Distribution, G2 + M (HT29 cells; HT29, 500 μM, 18 h after 6Gy): 37.7 percentage of total
Cell Cycle Distribution, S (HT29 cells; HT29, 500 μM, 18 h after 6Gy): 19.2 percentage of total
Cell Cycle Distribution, sub G (HT29 cells; HT29, 500 μM, 18 h after 6Gy): 3.9 percentage of total
Checkpoint remark (HT29 cells; HT29, 500 μM, 18 h after 6Gy): G2 abrogation
Checkpoint abrogation (HT29 cells; HT29, 6 Gy): abrogation of the G2 checkpoint
